From patent US10000476B2, “Pyridone derivative, pharmaceutical containing the same and methods of use thereof” (KAKEN PHARMACEUTICAL CO., LTD., priority 2011, dated 2018)

Biological target: TACE (Homo sapiens (Human), UniProt P78536)
Assay: TACE inhibition test (in vitro)
Type: biochemical
Settings: fluorescent synthetic substrate, 37° C., 1.5 hours
Experimental: The nucleotide sequence of TACE has been reported by Moss et al. (Moss, M. L. et al., Nature 1997, 385, 733-736). Accordingly, the cDNA of TACE was obtained according to the prescribed method from THP-1 cells or the like, and then incorporated the cDNA into an expression vector. Next, this vector was transformed into mammalian cells or insect cells, and TACE expression was obtained.
The TACE inhibition test was carried out by measuring TACE activity in the presence and the absence of the test substance using the thus-obtained TACE as an enzyme, and a fluorescent synthetic substrate Nma(N-methylanthranilic acid)-Leu-Ala-Gln-Ala-Val-Arg-Ser-Ser-Lys(Dnp(dinitrophenyl))-D-Arg-NH2 (SEQ ID NO: 1) including the TACE-cleaved sequence of a membrane-bound TNF as a substrate. The TACE inhibition test method is shown below.
Namely, 90 μL of an enzyme solution prepared with an assay buffer A (50 mM tris-hydrochloric acid buffer (pH 7.5) including 200 mM sodium chloride, 5 mM calcium chloride, 10 μM zinc sulfate, and 2 mg/mL bovine serum albumin) and 90 μL of a fluorescent synthetic substrate prepared with an assay buffer B (50 mM tris-hydrochloric acid buffer (pH 7.5) including 200 mM sodium chloride, 5 mM calcium chloride, 10 μM zinc sulfate, and 0.05% PLURONIC F-68) were mixed together, and reacted at 37° C. for 1.5 hours. Enzyme activity was then determined by measuring with a fluorescence intensity meter (Labsystems, Fluoroskan Ascent) at an excitation wavelength of 355 nm and a measurement wavelength of 460 nm.
From the enzyme activity in the presence or the absence of the test substance, the inhibition rate was determined, and the 50% inhibitiory concentration (IC50) of the test substance was calculated.

Sequence of TACE (P78536 215-824): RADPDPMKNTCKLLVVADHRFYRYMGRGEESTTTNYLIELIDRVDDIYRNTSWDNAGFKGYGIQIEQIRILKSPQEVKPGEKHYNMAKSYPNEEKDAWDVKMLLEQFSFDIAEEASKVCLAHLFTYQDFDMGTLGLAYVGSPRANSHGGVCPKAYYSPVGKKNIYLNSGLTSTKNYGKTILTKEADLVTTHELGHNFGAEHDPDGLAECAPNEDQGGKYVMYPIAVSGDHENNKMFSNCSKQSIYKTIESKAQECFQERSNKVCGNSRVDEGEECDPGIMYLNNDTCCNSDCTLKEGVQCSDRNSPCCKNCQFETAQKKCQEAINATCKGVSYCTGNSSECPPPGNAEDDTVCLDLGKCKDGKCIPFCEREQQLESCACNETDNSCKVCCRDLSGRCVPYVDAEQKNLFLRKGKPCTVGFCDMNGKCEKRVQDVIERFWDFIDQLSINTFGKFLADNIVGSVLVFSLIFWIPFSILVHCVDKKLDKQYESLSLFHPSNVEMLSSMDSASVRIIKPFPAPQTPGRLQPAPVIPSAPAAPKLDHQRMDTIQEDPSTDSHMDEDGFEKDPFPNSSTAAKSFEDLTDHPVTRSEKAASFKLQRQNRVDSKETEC

Row | IC50 [nM] | SMILES
1 | < 100 | O=C1NC(=O)C(Cn2ccccc2=O)(c2ccccc2)N1 (stereo not shown) [Compound I-46, 5-[(2-oxopyridin-1(2H)-yl)methyl]-5-phenylimidazolidine-2,4-dione]
2 | < 100 | COc1ccc(C2(Cn3ccccc3=O)NC(=O)NC2=O)cc1 (stereo not shown) [Compound I-47, 5-(4-methoxyphenyl)-5-[(2-oxopyridin-1(2H)-yl)methyl]imidazolidine-2,4-dione]
3 | < 100 | O=C1NC(=O)C(Cn2cccc(F)c2=O)(c2ccc(F)cc2)N1 (stereo not shown) [Compound I-48, 5-[(3-fluoro-2-oxopyridin-1(2H)-yl)methyl]-5-(4-fluorophenyl)-imidazolidine-2,4-dione]
4 | < 100 | O=C1NC(=O)C(Cn2cccc(F)c2=O)(c2ccc(-c3ccccc3)cc2)N1 (stereo not shown) [Compound I-49, 5-([1,1′-biphenyl]-4-yl)-5-[(3-fluoro-2-oxopyridin-1(2H)-yl)methyl]imidazolidine-2,4-dione]
5 | < 100 | O=C1NC(=O)C(Cn2cccc(Cl)c2=O)(c2ccccc2)N1 (stereo not shown) [Compound I-50, 5-[(3-chloro-2-oxopyridin-1(2H)-yl)methyl]-5-phenylimidazolidine-2,4-dione]
6 | < 100 | O=C1NC(=O)C(Cn2cccc(Cl)c2=O)(c2cc3ccccc3o2)N1 (stereo not shown) [Compound I-51, 5-(benzofuran-2-yl)-5-[(3-chloro-2-oxopyridin-1(2H)-yl)methyl]imidazolidine-2,4-dione]
7 | < 100 | COc1ccc(C2(Cn3cccc(Br)c3=O)NC(=O)NC2=O)cc1 (stereo not shown) [Compound I-52, 5-[(3-bromo-2-oxopyridin-1(2H)-yl)methyl]-5-(4-methoxyphenyl)imidazolidine-2,4-dione]
8 | 100 to 1000 | CCc1cccn(CC2(c3ccc(OC)cc3)NC(=O)NC2=O)c1=O (stereo not shown) [Compound I-53, 5-[(3-ethyl-2-oxopyridin-1(2H)-yl)methyl]-5-(4-methoxyphenyl)imidazolidine-2,4-dione]
9 | 100 to 1000 | Cc1cccn(CC2(c3cccc(O)c3)NC(=O)NC2=O)c1=O (stereo not shown) [Compound I-54, 5-(3-hydroxyphenyl)-5-[(3-methyl-2-oxopyridin-1(2H)-yl)methyl]imidazolidine-2,4-dione]
10 | < 100 | Cc1cccn(CC2(c3ccncc3)NC(=O)NC2=O)c1=O (stereo not shown) [Compound I-55]
11 | < 100 | Cc1cccn(CC2(c3ccc4ccccc4c3)NC(=O)NC2=O)c1=O (stereo not shown) [Compound I-56]
12 | < 100 | Cc1cccn(CC2(c3cccc(Br)c3)NC(=O)NC2=O)c1=O (stereo not shown) [Compound I-57]
13 | < 100 | Cc1cccn(CC2(c3cccc(OCc4ccccc4)c3)NC(=O)NC2=O)c1=O (stereo not shown) [Compound I-58]
14 | < 100 | Cc1cccn(CC2(c3ccc4c(c3)OCCO4)NC(=O)NC2=O)c1=O (stereo not shown) [Compound I-59]
15 | 100 to 1000 | COc1ccccc1C1(Cn2cccc(C)c2=O)NC(=O)NC1=O (stereo not shown) [Compound I-60]
16 | 100 to 1000 | Cc1cccn(CC2(c3ccc(F)cc3F)NC(=O)NC2=O)c1=O (stereo not shown) [Compound I-61]
17 | 100 to 1000 | Cc1cccn(CC2(c3cccc(C#CC(C)(C)C)c3)NC(=O)NC2=O)c1=O (stereo not shown) [Compound I-63]
18 | < 100 | Cc1cccn(CC2(c3ccc4c(c3)OCO4)NC(=O)NC2=O)c1=O (stereo not shown) [Compound I-65]
19 | < 100 | Cc1cccn(CC2(c3ccc(C4CCCCC4)cc3)NC(=O)NC2=O)c1=O (stereo not shown) [Compound I-66]
20 | < 100 | Cc1cccn(CC2(c3cccc(OC(F)(F)F)c3)NC(=O)NC2=O)c1=O (stereo not shown) [Compound I-67]
21 | 100 to 1000 | Cc1cccn(CC2(c3ccccc3OCc3ccccc3)NC(=O)NC2=O)c1=O (stereo not shown) [Compound I-68]
22 | < 100 | COc1ccc(F)cc1C1(Cn2cccc(C)c2=O)NC(=O)NC1=O (stereo not shown) [Compound I-69]
23 | 100 to 1000 | COc1cc(C)c(Cl)cc1C1(Cn2cccc(C)c2=O)NC(=O)NC1=O (stereo not shown) [Compound I-70]
24 | < 100 | Cc1cccn(CC2(c3cccc(C#CCN(C)C)c3)NC(=O)NC2=O)c1=O (stereo not shown) [Compound I-71]
25 | < 100 | COc1ccc(-c2ccc(C3(Cn4cccc(C)c4=O)NC(=O)NC3=O)cc2)cc1 (stereo not shown) [Compound I-72]
26 | < 100 | COc1cccc(-c2ccc(C3(Cn4cccc(C)c4=O)NC(=O)NC3=O)cc2)c1 (stereo not shown) [Compound I-73]

Row | IC50 [nM] | SMILES
27 | < 100 | COc1ccccc1-c1ccc(C2(Cn3cccc(C)c3=O)NC(=O)NC2=O)cc1 (stereo not shown) [Compound I-74]
28 | < 100 | Cc1cccn(CC2(c3ccc(-c4ccc(F)cc4)cc3)NC(=O)NC2=O)c1=O (stereo not shown) [Compound I-75]
29 | 100 to 1000 | COc1ccc(C)cc1C1(Cn2cccc(C)c2=O)NC(=O)NC1=O (stereo not shown) [Compound I-76]
30 | < 100 | Cc1cccn(CC2(c3ccc4c(c3)CCCC4)NC(=O)NC2=O)c1=O (stereo not shown) [Compound I-77]
31 | < 100 | Cc1cccn(CC2(c3ccc(OC(F)F)cc3)NC(=O)NC2=O)c1=O (stereo not shown) [Compound I-78]
32 | < 100 | Cc1cccn(CC2(c3ccc(OC(F)(F)F)cc3)NC(=O)NC2=O)c1=O (stereo not shown) [Compound I-79]
33 | < 100 | Cc1cccc(Oc2ccc(C3(Cn4cccc(C)c4=O)NC(=O)NC3=O)cc2)c1 (stereo not shown) [Compound I-80]
34 | < 100 | COc1ccc(Oc2ccc(C3(Cn4cccc(C)c4=O)NC(=O)NC3=O)cc2)cc1 (stereo not shown) [Compound I-81]
35 | < 100 | Cc1cccn(CC2(c3ccc(Oc4ccc(Cl)cc4)cc3)NC(=O)NC2=O)c1=O (stereo not shown) [Compound I-82]
36 | < 100 | COc1cccc(Oc2ccc(C3(Cn4cccc(C)c4=O)NC(=O)NC3=O)cc2)c1 (stereo not shown) [Compound I-83]
37 | < 100 | Cc1cccn(CC2(c3ccc(Oc4ccccc4)c(F)c3)NC(=O)NC2=O)c1=O (stereo not shown) [Compound I-87]
38 | < 100 | Cc1cccn(CC2(c3ccc(OCc4ccc(F)cc4)cc3)NC(=O)NC2=O)c1=O (stereo not shown) [Compound I-88]
39 | < 100 | Cc1cccn(CC2(c3ccc(C(F)(F)F)cc3)NC(=O)NC2=O)c1=O (stereo not shown) [Compound I-89]
40 | < 100 | Cc1noc(C)c1-c1ccc(C2(Cn3cccc(C)c3=O)NC(=O)NC2=O)cc1 (stereo not shown) [Compound I-90]
41 | < 100 | COc1ccncc1-c1ccc(C2(Cn3cccc(C)c3=O)NC(=O)NC2=O)cc1 (stereo not shown) [Compound I-91]
42 | < 100 | Cc1cccn(CC2(c3ccc(-c4ccccn4)cc3)NC(=O)NC2=O)c1=O (stereo not shown) [Compound I-92]
43 | < 100 | Cc1cccn(CC2(c3cccc(-c4ccc(F)cn4)c3)NC(=O)NC2=O)c1=O (stereo not shown) [Compound I-93]
44 | < 100 | Cc1cccn(CC2(c3cccc(-c4ccccn4)c3)NC(=O)NC2=O)c1=O (stereo not shown) [Compound I-94]
45 | < 100 | Cc1cccn(CC2(c3cccc(-c4ccncc4)c3)NC(=O)NC2=O)c1=O (stereo not shown) [Compound I-95]
46 | < 100 | Cc1cccn(CC2(c3cccc(-c4ccccc4)c3)NC(=O)NC2=O)c1=O (stereo not shown) [Compound I-96]
47 | < 100 | Cc1cccn(CC2(c3ccc(Oc4ccc(F)cc4F)cc3)NC(=O)NC2=O)c1=O (stereo not shown) [Compound I-97]
48 | < 100 | Cc1cccn(CC2(c3ccc(Oc4ccc(F)c(F)c4)cc3)NC(=O)NC2=O)c1=O (stereo not shown) [Compound I-98]
49 | < 100 | Cc1cccn(CC2(c3ccc(Oc4cc(F)cc(F)c4)cc3)NC(=O)NC2=O)c1=O (stereo not shown) [Compound I-99]
50 | < 100 | Cc1cccn(CC2(c3ccc(Oc4cccc(C(F)(F)F)c4)cc3)NC(=O)NC2=O)c1=O (stereo not shown) [Compound I-100]
51 | < 100 | Cc1cccn(CC2(c3ccc(Oc4cccnc4)cc3)NC(=O)NC2=O)c1=O (stereo not shown) [Compound I-101]
52 | < 100 | Cc1cccn(CC2(c3ccc(Sc4ccccc4)c(F)c3)NC(=O)NC2=O)c1=O (stereo not shown) [Compound I-103]
